Test results taken from US7008632B2, “Combination of biological and chemical agents to combat rodents” (priority 2000, dated 2006).
Marks after values point to notes of the source that are not given here.

How the values were obtained:
[1] = tested on: Rattus norvegicus; details: non-resistant rats; cited from earlier work
[2] = tested on: feral adult brown rats (Rattus norvegicus); assay: Experiment using feral adult brown rats: mortality after gavage of sporocysts, coumatetralyl or the combination; type: in vivo; details: single gavage; 10 000 sporocysts and/or 6 mg of coumatetralyl per kg of body weight
Protocol: Experiment Using Feral Adult Brown Rats (Rattus norvegicus)
The mortality was determined.
The rats were raised under standard conditions in the laboratory. During the experiment and the 2-week preparation, they were kept individually in cages made of Makrolon. Sporocyst suspension and coumatetralyl were administered by gavage, and during the administration the animals were anesthetized lightly using diethyl ether.

| SMILES | LD50 (acute oral) [1] [mg/kg] | Mortality % [2] |
| --- | --- | --- |
| O=c1oc2ccccc2c(O)c1C1CC(c2ccc(-c3ccc(Br)cc3)cc2)Cc2ccccc21 (stereo not drawn) [brodifacoum] | 0.2 | – |
| O=c1oc2ccccc2c(O)c1C(CC(O)c1ccc(-c2ccc(Br)cc2)cc1)c1ccccc1 (stereo not drawn) [bromadiolone, 3-(4′-hydroxy-3′-coumarinyl)-3-phenyl-1-(4′-bromo-4′-biphenyl)-propan-1-ol] | 2.0 | – |
| O=c1oc2ccccc2c(O)c1C1CCCc2ccccc21 (stereo not drawn) [coumatetralyl, 3-(1′,2′,3′,4′-tetrahydro-1′-naphthyl)-4-hydroxycoumarin] | – | 17* % |
